Data: patent US9809602B2, “Compounds for treating viral infections” (INSTITUT PASTEUR KOREA, priority 2014, dated 2017)
pEC50: −log10 of the molar value.

Key:
[1] = tested on: genotype 1/2 chimeric cell culture derived HCV (HCVcc); assay: Genotype 1/2 chimeric HCVcc assay (nano-luciferase, HCV replication); type: cell-based; conditions: Hepatitis C virus
How it was run: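 EC50 (replication, nano-luciferase) and CC50 (viability, cellular ATP) were determined by non-linear regression 72 h after infection with a reporter HCVcc chimera carrying genotype 1a structural and 2a JFH-1 non-structural proteins. Compound was applied to Huh-7.5 cells 2 h before inoculation.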

[2] = tested on: HCV genotype 2b (J8) chimeric HCVcc; assay: Pan-genotypic activity test using chimeric HCVcc, genotype 2b; type: cell-based; conditions: Hepatitis C virus, read-out: EC50 gt2b
Protocol: (§1) Naïve Huh-7.5 target cells were plated at 2400 cells/well in 25 μL of culture media in 384-well plates (Greiner bio-one, μ clear black). After overnight incubation, compounds serially diluted in 10 μL of cell culture media were added. After 2 h compound treatment, cells were inoculated with 40 μL of genotype 1/2 chimeric cell culture derived HCV (HCVcc) which express structural proteins of an HCV genotype 1a isolate (TN accession number EF621489) and non-structural proteins of HCV genotype 2a (JFH-1) with nano-luciferase reporter. At 72 h post infection, nano-luciferase activity (Nano-Glo™, Promega) and cellular ATP (Cell titer-Glo™, Promega) were measured as a marker for HCV replication and cytotoxicity, respectively. EC50 and CC50 were calculated by non-linear regression analyzing using GraphPad Prism (GraphPad Software).
(§2) In order to evaluate cross-genotypic antiviral activity against various HCV genotypes, Formulas I and II were tested using chimeric HCVcc as described above. HCV chimeras expressing the structural proteins of HCV genotype 1b (J4), 2a (J6), 2b (J8), 3a (S52), 4a (ED43), 5a (SA13), 6a (HK6a) or 7a (QC69), followed by HCV genotype 2a (JFH-1) derived non-structural proteins responsible for viral RNA replication and Renilla luciferase reporter gene were used to monitor viral replication.

[3] = tested on: HCV genotype 2a (J6) chimeric HCVcc; assay: Pan-genotypic activity test using chimeric HCVcc, genotype 2a; type: cell-based; conditions: Hepatitis C virus, read-out: EC50 gt2a
Protocol: as §1, §2

[4] = tested on: HCV genotype 1a chimeric HCVcc; assay: Pan-genotypic activity test using chimeric HCVcc, genotype 1a; type: cell-based; conditions: Hepatitis C virus, read-out: EC50 gt1a
[5] = tested on: HCV genotype 3a (S52) chimeric HCVcc; assay: Pan-genotypic activity test using chimeric HCVcc, genotype 3a; type: cell-based; conditions: Hepatitis C virus, read-out: EC50 gt3a
Protocol: as §1, §2

[6] = tested on: HCV genotype 4a (ED43) chimeric HCVcc; assay: Pan-genotypic activity test using chimeric HCVcc, genotype 4a; type: cell-based; conditions: Hepatitis C virus, read-out: EC50 gt4a
Protocol: as §1, §2

[7] = tested on: HCV genotype 7a (QC69) chimeric HCVcc; assay: Pan-genotypic activity test using chimeric HCVcc, genotype 7a; type: cell-based; conditions: Hepatitis C virus, read-out: EC50 gt7a
Protocol: as §1, §2

[8] = tested on: HCV genotype 1b (J4) chimeric HCVcc; assay: Pan-genotypic activity test using chimeric HCVcc, genotype 1b; type: cell-based; conditions: Hepatitis C virus, read-out: EC50 gt1b
Protocol: as §1, §2

[9] = tested on: HCV genotype 5a (SA13) chimeric HCVcc; assay: Pan-genotypic activity test using chimeric HCVcc, genotype 5a; type: cell-based; conditions: Hepatitis C virus, read-out: EC50 gt5a
Protocol: as §1, §2

[10] = tested on: HCV genotype 6a (HK6a) chimeric HCVcc; assay: Pan-genotypic activity test using chimeric HCVcc, genotype 6a; type: cell-based; conditions: Hepatitis C virus, read-out: EC50 gt6a
Protocol: as §1, §2

| Structure (SMILES) | melting point [°C] | pEC50 ([1]; Huh7.5, 72 h) | pEC50 [1] | pEC50 [2] | pEC50 [3] | pEC50 [4] | pEC50 [5] | pEC50 [6] | pEC50 [7] | pEC50 [8] | pEC50 [9] | pEC50 [10] |
| --- | --- | --- | --- | --- | --- | --- | --- | --- | --- | --- | --- | --- |
| CCN1CCc2c(sc(-n3cccc3)c2CNC(=O)Nc2sccc2C(=O)OC)C1 [Compound 11] | 201.8 | 5.00 to 6.00 |  |  |  |  |  |  |  |  |  |  |
| CCOC(=O)c1c(NC(=O)NCc2c(-n3cccc3)sc3c2CCN(CC)C3)sc(C)c1C [Compound 12] | 196.9 | 6.00 to 7.00 |  |  |  |  |  |  |  |  |  |  |
| O=C(NCCCN1CCC(N2CCCCC2)CC1)c1ccc(-c2ccccc2OC(F)(F)F)cc1 [Compound 1149] |  |  | 6.00 to 7.00 |  |  |  |  |  |  |  |  |  |
| N#Cc1cccc(-c2ccc(C(=O)NCCCN3CCC(N4CCCCC4)CC3)cc2)c1 [Compound 1150] |  |  | 6.00 to 7.00 |  |  |  |  |  |  |  |  |  |
| CN1CCN(C(=O)c2ccc(-c3ccc(C(=O)NCCCN4CCC(N5CCCCC5)CC4)cc3)cc2)CC1 [Compound 1151] |  |  | < 5.00 |  |  |  |  |  |  |  |  |  |
| Cc1cc(NC(=O)CCCN2CCC(N3CCCCC3)CC2)ccc1-c1ccc(C(F)(F)F)cc1 [Compound 1152] |  |  | > 7.00 |  |  |  |  |  |  |  |  |  |
| O=C(NCCCN1CCC(N2CCCCC2)CC1)c1ccc(-c2ccc(C(F)(F)F)cc2)cc1F [Compound 1153] |  |  | 6.00 to 7.00 |  |  |  |  |  |  |  |  |  |
| CN(C)c1ccc(-c2ccc(C(=O)NCCCN3CCC(N4CCCCC4)CC3)c(Cl)c2)cc1 [Compound 1154] |  |  | 6.00 to 7.00 |  |  |  |  |  |  |  |  |  |
| COc1cc(-c2ccc(C(F)(F)F)cc2)ccc1C(=O)NCCCN1CCC(N2CCCCC2)CC1 [Compound 1155] |  |  | 6.00 to 7.00 |  |  |  |  |  |  |  |  |  |
| Cc1cc(-c2ccc(C(F)(F)F)cc2)ccc1C(=O)NCCCN1CCC(N2CCCCC2)CC1 [Compound 1156] |  |  | 6.00 to 7.00 |  |  |  |  |  |  |  |  |  |
| COc1cc(NC(=O)CCCN2CCC(N3CCCCC3)CC2)ccc1-c1ccc(C(F)(F)F)cc1 [Compound 1157] |  |  | 6.00 to 7.00 |  |  |  |  |  |  |  |  |  |
| O=C(CCCN1CCC(N2CCCCC2)CC1)Nc1ccc(-c2ccc(C(F)(F)F)cc2)c(C(F)(F)F)c1 [Compound 1158] |  |  | 6.00 to 7.00 |  |  |  |  |  |  |  |  |  |
| N#Cc1cc(NC(=O)CCCN2CCC(N3CCCCC3)CC2)ccc1-c1ccc(C(F)(F)F)cc1 [Compound 1159] |  |  | 6.00 to 7.00 |  |  |  |  |  |  |  |  |  |
| CCN1CCc2c(sc(-n3cccc3)c2CNC(=O)Nc2sc3c(c2C(=O)OC(C)(C)C)CCCC3)C1 [No. 14] |  |  |  | > 7.00 | 6.00 to 7.00 | 6.00 to 7.00 | 6.00 to 7.00 | 6.00 to 7.00 | > 7.00 | 6.00 to 7.00 | 5.00 to 6.00 | < 5.00 |
| CCOC(=O)c1c(NC(=O)NCc2c(-n3cccc3)sc3c2CCNC3)sc2c1CCCC2 [No. 19] |  |  |  | 6.00 to 7.00 | 6.00 to 7.00 | 6.00 to 7.00 | 6.00 to 7.00 | 6.00 to 7.00 | 6.00 to 7.00 | 6.00 to 7.00 | 5.00 to 6.00 | < 5.00 |
| CCOC(=O)c1c(NC(=O)NCc2c(-n3cccc3)sc3c2CCN(S(C)(=O)=O)C3)sc2c1CCCC2 [No. 21] |  |  |  |  | > 7.00 | > 7.00 | > 7.00 | > 7.00 | > 7.00 | > 7.00 | 5.00 to 6.00 | < 5.00 |
| CCOC(=O)c1c(NC(=O)NCc2c(-n3cccc3)sc3c2CCN(CC(C)C)C3)sc2c1CCCC2 [No. 27] |  |  |  | 6.00 to 7.00 | 6.00 to 7.00 | 6.00 to 7.00 | 6.00 to 7.00 | 6.00 to 7.00 | 6.00 to 7.00 | 6.00 to 7.00 | 5.00 to 6.00 | < 5.00 |
| CC(C)(C)OC(=O)c1c(NC(=O)NCc2c(C(F)(F)F)sc3c2CCNC3)sc2c1CCCC2 [No. 121] |  |  |  | > 7.00 | > 7.00 | > 7.00 | > 7.00 | > 7.00 | > 7.00 | > 7.00 | 5.00 to 6.00 | < 5.00 |
| CC(C)OC(=O)c1c(NC(=O)NCc2c(C(F)(F)F)sc3c2CCNC3)sc2c1CCCC2 [No. 167] |  |  |  | > 7.00 | > 7.00 | > 7.00 | > 7.00 | > 7.00 | > 7.00 | > 7.00 | 5.00 to 6.00 | < 5.00 |
| CCOC(=O)c1c(NC(=O)NCc2c(C(F)(F)F)sc3c2CCN(CCN(C)C)C3)sc2c1CCCC2 [No. 316] |  |  |  | > 7.00 | > 7.00 | > 7.00 | > 7.00 | > 7.00 | > 7.00 | > 7.00 | 5.00 to 6.00 | < 5.00 |
| O=C(NCCCN1CCC(N2CCCCC2)CC1)c1ccc(Oc2ccccc2)cc1 [No. 1013] |  |  |  | 6.00 to 7.00 | 5.00 to 6.00 | < 5.00 | < 5.00 | < 5.00 | < 5.00 | < 5.00 | < 5.00 | < 5.00 |
| O=C(NCCCN1CCC(N2CCCCC2)CC1)c1ccc(-c2ccc(C(F)(F)F)cc2)cc1 [No. 1019] |  |  |  | 5.00 to 6.00 | 5.00 to 6.00 | < 5.00 | < 5.00 | < 5.00 | < 5.00 | < 5.00 | < 5.00 | < 5.00 |
